Active and inactive are the calls of the source. The calls are words filed in the database; no cut-off is given here.
Species: Rattus norvegicus
Assay: Neuroprotective activity in Sprague-Dawley rat DA neuron death PD model assessed as inhibition of calcium mobilization at 50 uM after 10 days in presence of N-type voltage gated calcium channel blocker omega-conotoxin M7A
Format: functional

For `Nc1ccc2ncc(-c3ccccc3)nc2c1`, the inhibition was “Active”.

Source: ChEMBL document CHEMBL4431316, “New 6-Aminoquinoxaline Derivatives with Neuroprotective Effect on Dopaminergic Neurons in Cellular and Animal Parkinson Disease Models” (J Med Chem, 2016)
